Measurements as given in patent US6372297B1, “Wood preservative oxathiazines” (Uniroyal Chemical Company, Inc., priority 1993, dated 2002).
In brackets after ≈: the same amount, converted by molar mass. Like-named read-outs stand apart in the source and are kept apart here.

Legend:
[1] = system: blue-stain fungi and molds; test: Activity against blue-stain fungi and molds in a stick test (threshold concentrations); details: beech sticks, 22° C., 90% relative humidity; for Threshold concentration (ppm), A. niger, score 0 / Threshold concentration (ppm), Aureobasidium, score 0 / Threshold concentration (ppm), Sclerophoma, score 0 / Threshold concentration (ppm), Trichoderma, score 0: minimum concentration to obtain score 0; for Threshold concentration (ppm), A. niger, score 1-2 / Threshold concentration (ppm), Aureobasidium, score 1-2 / Threshold concentration (ppm), Sclerophoma, score 1-2 / Threshold concentration (ppm), Trichoderma, score 1-2: minimum concentration to obtain score 1-2
Description: Representative compounds of this invention were dissolved in 50% ethanol. Each compound was then diluted serially using 50% ethanol. […] After three (3) hours, the solutions containing the test compounds were poured off and the treated sticks were allowed to dry in a sterile laminar air flow. Each treated stick was then placed in a Petri dish which had been previously seeded with inoculum. Two drops of a test fungal or spore suspension were pipetted onto the upper surface of each treated stick. The Petri dishes containing the treated sticks were incubated at 22° C. and 90% relative humidity. The treated sticks were evaluated after there was sufficient growth of fungus on control sticks (i.e., untreated sticks) incubated in the same manner. The following score system was used: 0: Stick free of fungal/mold growth 1: Traces of fungal growth on the stick 2: Slight growth (5 to 25% of the surface covered with fungal growth) 3: Moderate growth (25 to 50% covered with fungal growth) 4. Vigorous to maximum fungal growth (more than 50% growth) […]

[2] = system: molds and blue-stain fungi; test: In vitro activity against molds and blue-stain fungi, poison plate assay (MIC); assay type: cell-based; details: malt extract agar, complete inhibition
Description: The effect of the representative compounds on the growth of certain molds and blue-strain fungi were determined using a poison plate assay according to the following procedure: The solutions of the representative compounds prepared above were further diluted with sterile water to desired concentrations and poured into Petri dishes. Malt extract agar medium was then added aseptically to the Petri dishes and to Petri dishes containing no compound (controls). The Petri dishes were then shaken to provide a uniform distribution of the agar medium. Each Petri dish containing compound and each control Petri dish, was then inoculated with a fungus and incubated for a period of time sufficient to permit complete growth of the fungus in the respective control Petri dish. The Petri dishes containing compound were then examined to determine the amount of inhibition of fungi for each concentration of compound tested.

[3] = A. amstelodami, read-out: MIC (ppm) against A. amstelodami
[4] = Aspergillus niger, A. niger, read-out: MIC (ppm) against A. niger
[5] = Aspergillus versicolor, A. versicolor, read-out: MIC (ppm) against A. versicolor
[6] = Aureobasidium pullulans, A. pullulans, read-out: MIC (ppm) against A. pullulans
[7] = C. pilifera, read-out: MIC (ppm) against C. pilifera
[8] = Cladosporium cladosporioides, C. cladosporioides, read-out: MIC (ppm) against C. cladosporioides
[9] = Fusarium solani, F. solani, read-out: MIC (ppm) against F. solani
[10] = Geotrichum candidum, G. candidum, read-out: MIC (ppm) against G. candidum
[11] = P. purpurogenum, read-out: MIC (ppm) against P. purpurogenum
[12] = P. violacea, read-out: MIC (ppm) against P. violacea
[13] = Paecilomyces variotii, P. variotii, read-out: MIC (ppm) against P. variotii
[14] = S. atra, read-out: MIC (ppm) against S. atra
[15] = S. entoxylina, read-out: MIC (ppm) against S. entoxylina
[16] = Trichoderma viride, T. viride, read-out: MIC (ppm) against T. viride
[17] = U. atrum, read-out: MIC (ppm) against U. atrum

Structure (SMILES)	Threshold concentration (ppm), A. niger, score 0 [1] [ppm]	Threshold concentration (ppm), A. niger, score 1-2 [1]	Threshold concentration (ppm), Aureobasidium, score 0 [1] [ppm]	Threshold concentration (ppm), Aureobasidium, score 1-2 [1]	Threshold concentration (ppm), Sclerophoma, score 0 [1] [ppm]	Threshold concentration (ppm), Sclerophoma, score 1-2 [1]	Threshold concentration (ppm), Trichoderma, score 0 [1] [ppm]	Threshold concentration (ppm), Trichoderma, score 1-2 [1]	MIC (ppm) against A. amstelodami ([2]; A. amstelodami) [ppm]	MIC (ppm) against A. niger ([2]; A. niger) [ppm]	MIC (ppm) against A. pullulans ([2]; A. pullulans) [ppm]	MIC (ppm) against A. versicolor ([2]; A. versicolor) [ppm]	MIC (ppm) against C. cladosporioides ([2]; C. cladosporioides) [ppm]	MIC (ppm) against C. pilifera ([2]; C. pilifera) [ppm]	MIC (ppm) against F. solani ([2]; F. solani) [ppm]	MIC (ppm) against G. candidum ([2]; G. candidum) [ppm]	MIC (ppm) against P. purpurogenum ([2]; P. purpurogenum) [ppm]	MIC (ppm) against P. variotii ([2]; P. variotii) [ppm]	MIC (ppm) against P. violacea ([2]; P. violacea) [ppm]	MIC (ppm) against S. atra ([2]; S. atra) [ppm]	also measured
CC1CS(=O)(=O)C(c2cccs2)=NO1 (stereo not shown) [Compound 51, 5,6-dihydro-6-methyl-3-(2-thienyl)-1,4,2-oxathiazine-4,4, dioxide]	500	250-500 ppm	>1000	250-500 ppm	100	50-100 ppm	1000	500-1000 ppm	–	–	–	–	–	–	–	–	–	–	–	–	–
CCOC(=O)c1ccc(C2=NOCC[S+]2[O-])s1 (stereo not shown) [Compound 54]	500	<250 ppm	500	250-500 ppm	100	<50 ppm	5000	500-1000 ppm	–	–	–	–	–	–	–	–	–	–	–	–	–
N#Cc1ccc(C2=NOCC[S+]2[O-])s1 (stereo not shown) [Compound 57]	500	<250 ppm	>1000	250-500 ppm	100	<50 ppm	1000	500-1000 ppm	10	10	>25	10	25	10	25	25	10	25	25	10	MIC (ppm) against S. entoxylina ([2]; S. entoxylina): 10 ppm; MIC (ppm) against T. viride ([2]; T. viride): >25 ppm; MIC (ppm) against U. atrum ([2]; U. atrum): 25 ppm
N#Cc1ccc(C2=NOCCS2(=O)=O)s1 [Compound 58]	500	<250 ppm	>1000	500-1000 ppm	100	<50 ppm	5000	1000-2500 ppm	5	5	25	5	10	5	10	25	10	25	25	5	MIC (ppm) against S. entoxylina ([2]; S. entoxylina): 5 ppm; MIC (ppm) against T. viride ([2]; T. viride): 25 ppm; MIC (ppm) against U. atrum ([2]; U. atrum): 10 ppm
[O-][S+]1CCON=C1c1ccc(Cl)s1 (stereo not shown) [Compound 60, 3-(5-Chloro-2-thienyl)-5.6-dihydro-1.4.2-oxathiazine-4-oxide]	500	<250 ppm	1000	100-250 ppm	100	<50 ppm	2500	500-1000 ppm	5	5	25	2.5	25	5	10	25	25	10	10	5	MIC (ppm) against S. entoxylina ([2]; S. entoxylina): 5 ppm; MIC (ppm) against T. viride ([2]; T. viride): 25 ppm; MIC (ppm) against U. atrum ([2]; U. atrum): 10 ppm
[O-][S+]1CCON=C1c1nc2ccccc2o1 (stereo not shown) [Compound 81]	500	250-500 ppm	>1000	250-500 ppm	250	<50 ppm	2500	500-1000 ppm	–	–	–	–	–	–	–	–	–	–	–	–	–
O=S1(=O)CCON=C1c1nc2ccccc2s1 [Compound 83, 5,6-dihydro-3-(2-benzothiazolyl)-1,4,2-oxathiazine 4,4-dioxide]	–	–	–	–	–	–	–	–	–	–	–	–	–	–	–	–	–	–	–	–	MIC [2, 3]: > 25 µg/mL; MIC [2, 4]: > 25 µg/mL; MIC [2, 5]: 25 µg/mL (≈ 93.2 µM); MIC [2, 6]: > 25 µg/mL; MIC [2, 7]: 10 µg/mL (≈ 37.3 µM); MIC [2, 8]: > 25 µg/mL; MIC [2, 9]: > 25 µg/mL; MIC [2, 10]: > 25 µg/mL; MIC [2, 11]: > 25 µg/mL; MIC [2, 12]: > 25 µg/mL; MIC [2, 13]: > 25 µg/mL; MIC [2, 14]: 5 µg/mL (≈ 18.6 µM); MIC [2, 15]: 10 µg/mL (≈ 37.3 µM); MIC [2, 16]: > 25 µg/mL; MIC [2, 17]: > 25 µg/mL
[O-][S+]1CCON=C1c1nc2ccccc2s1 (stereo not shown) [Compound 85, 5,6-dihydro-3-(2-benzothiazolyl)-1,4,2-oxathiazine-4-oxide]	1000	<250 ppm	1000	250-500 ppm	100	<50 ppm	2500	1000-2500 ppm	–	–	–	–	–	–	–	–	–	–	–	–	MIC [2, 3]: 5 µg/mL (≈ 19.8 µM); MIC [2, 4]: 5 µg/mL (≈ 19.8 µM); MIC [2, 5]: 2.5 µg/mL (≈ 9.91 µM); MIC [2, 6]: 25 µg/mL (≈ 99.1 µM); MIC [2, 7]: 2.5 µg/mL (≈ 9.91 µM); MIC [2, 8]: 25 µg/mL (≈ 99.1 µM); MIC [2, 9]: 25 µg/mL (≈ 99.1 µM); MIC [2, 10]: 10 µg/mL (≈ 39.6 µM); MIC [2, 11]: 10 µg/mL (≈ 39.6 µM); MIC [2, 12]: 10 µg/mL (≈ 39.6 µM); MIC [2, 13]: 25 µg/mL (≈ 99.1 µM); MIC [2, 14]: 2.5 µg/mL (≈ 9.91 µM); MIC [2, 15]: 5 µg/mL (≈ 19.8 µM); MIC [2, 16]: 25 µg/mL (≈ 99.1 µM); MIC [2, 17]: 10 µg/mL (≈ 39.6 µM)
Cc1ccc2oc(C3=NOCC[S+]3[O-])nc2c1 (stereo not shown) [Compound 89]	500	250-500 ppm	>1000	100-250 ppm	250	<50 ppm	2500	1000-2500 ppm	–	–	–	–	–	–	–	–	–	–	–	–	–
